Assay results as given in patent US20250049806A1, “PHARMACEUTICAL COMPOSITION FOR PROVIDING TREATMENT FOR OR PREVENTING ALPORT SYNDROME” (UBE Corporation, priority 2021, published 2025).

assay: Transcellular transport test using Caco2 cell; assay type: in vitro ADME; conditions: human, Caco-2, apical-to-basolateral (A-to-B), pH=7.4, 10 µM compound
Protocol: Caco2 cells (purchased from ATCC) were cultured in DMEM medium (Thermo Fisher Scientific, Inc., 11965) containing 10% FBS (Thermo Fisher Scientific, Inc., 10082) and 1% penicillin/streptomycin/amphotericin B (Thermo Fisher Scientific, Inc., 15240). A transcellular transport test was carried out in accordance with MultiScreen Caco2 Drug Transport Assembly in a 96-well system (Application Note AN1727EN, MultiScreen Caco-2 Assay System, Merck) by partially modifying it. The Caco2 cells were inoculated at a cell density of 4×10^4 cells/well onto a micropore polycarbonate insert of a 96-well plate (Merck, Millcell-96 culture insert plate 0.4 μm pore size, well membrane area=0.11 cm^2, PSHT004S5) and cultured for 20 to 22 days, and the resulting monolayer was used in the transcellular transport test. The medium of the inoculated cells was replaced with a fresh one every 3 to 4 days.
Apical-to-basolateral (A-to-B) transport in the Caco2 cell monolayer membrane was performed by using HBSS (Thermo Fisher Scientific, Inc., 14025) medium (pH=7.4) containing 20 mM HEPES (Thermo Fisher Scientific, Inc., 15630), and adding HEPES-containing HBSS medium containing 10 µM compound (a 10 mM solution of the compound in DMSO was added at a 1000-fold dilution; final DMSO concentration: 0.1%) at 75 μL/well to the apical side and HEPES-containing HBSS medium supplemented with no compound at 250 μL/well to the basolateral side, followed by culture at 37° C. for 90 minutes. After culture, a 100 μL aliquot was collected from the basolateral side, and the concentration of a permeated compound was measured by LC-MS/MS under measurement conditions mentioned later. Papp (apparent permeability; cm/sec) was calculated from the determined concentration. Papp was determined according to the expression given below by calculating the slope (dA/dt; nmol/sec) of a straight line drawn between two points 0 minutes and zero amount of the compound in a graph plotted with an assay time (90 min) on the abscissa against the amount of the compound in the solution on the permeated side on the ordinate. As for an assay concentration, the concentration in the compound in the HEPES-containing HBSS medium containing the added compound was measured by UV-HPLC under measurement conditions mentioned later.
C0: assay concentration, S: plate membrane area=0.11 cm^2
• LC: LC20 or LC30 HPLC system manufactured by Shimadzu Corp. • Column: Phenomenex Kinetex C18 (50 mm×2.1 mm, 2.6 μm) • Column temperature: 40° C. • Flow rate: 0.3 mL/min • Mobile phase A: 0.1% aqueous formic acid solution • Mobile phase B: 0.1% formic acid, 50% acetonitrile/methanol mixed solution • Gradient: 0-2 min; A/B=90/10 to 10/90, 2-3 min; A/B=10/90, 3-3.01 min; A/B=10/90 to 90/10 • MS: Q-Trap3200 manufactured by AB Sciex Pte. Ltd. • Ionization: ESI • Mode: Positive
• LC: LC20 or LC30 HPLC system manufactured by Shimadzu Corp. • Column: Phenomenex Kinetex C18 (100 mm×2.1 mm, 2.6 μm) • Column temperature: 40° C. • Flow rate: 0.25 mL/min • Mobile phase A: 0.1% aqueous formic acid solution • Mobile phase B: 0.1% formic acid, 50% acetonitrile/methanol mixed solution • Gradient: 0-3 min; A/B=90/10, 3-11 min; A/B=90/10 to 5/95, 11-15 min; A/B=5/95, 15-15.1 min; A/B=5/95 to 90/10 • UV detector: photodiode array detector
A: Papp>1×10^−6 (cm/sec), B: 1×10^−6 (cm/sec)≥Papp>5×10^−7 (cm/sec), C: 5×10^−7 (cm/sec)≥Papp>1×10^−7 (cm/sec), or D: Papp≤1×10^−7 (cm/sec).

SMILES | Papp A→B at 90 min, 10 µM [nm/s]
O=C(O)C[C@H](NC(=O)CNC(=O)c1cc(NC2=NCC(F)CN2)c2cn[nH]c2c1)c1cc(-n2cccn2)cc(C(F)(F)F)c1 (stereo partly drawn) [8-(b), (3S)-3-(3-(1H-pyrazol-1-yl)-5-(trifluoromethyl)phenyl)-3-(2-(4-((5-fluoro-1,4,5,6-tetrahydropyrimidin-2-yl)amino)-1H-indazole-6-carboxamido)acetamido)propanoic acid] | 5 to 10
O=C(O)C[C@H](NC(=O)CNC(=O)c1cc(NC2=NCC(F)CN2)c2cn[nH]c2c1)c1cc(OC(F)F)cc(OC(F)F)c1 (stereo partly drawn) [30-(b), (3S)-3-(3,5-bis(difluoromethoxy)phenyl)-3-(2-(4-((5-fluoro-1,4,5,6-tetrahydropyrimidin-2-yl)amino)-1H-indazole-6-carboxamido)acetamido)propanoic acid] | 5 to 10
O=C(O)C[C@H](NC(=O)CNC(=O)c1cc(NC2=NCC(F)CN2)c2cn[nH]c2c1)c1cc(Cl)cc(OC(F)(F)F)c1 (stereo partly drawn) [31-(b), (3S)-3-(3-chloro-5-(trifluoromethoxy)phenyl)-3-(2-(4-((5-fluoro-1,4,5,6-tetrahydropyrimidin-2-yl)amino)-1H-indazole-6-carboxamido)acetamido)propanoic acid] | > 10
O=C(O)C[C@H](NC(=O)CNC(=O)c1cc(NC2=NCC(F)CN2)c2cn[nH]c2c1)c1cc(I)cc(C(F)(F)F)c1 (stereo partly drawn) [3-(b), (3S)-3-(2-(4-((5-fluoro-1,4,5,6-tetrahydropyrimidin-2-yl)amino)-1H-indazole-6-carboxamido)acetamido)-3-(3-iodo-5-(trifluoromethyl)phenyl)propanoic acid] | > 10
O=C(O)C[C@H](NC(=O)CNC(=O)c1cc(NC2=NCC(F)CN2)c2cn[nH]c2c1)c1cc(Cl)c(F)c(C(F)(F)F)c1 (stereo partly drawn) [15-(b), (3S)-3-(3-chloro-4-fluoro-5-(trifluoromethyl)phenyl)-3-(2-(4-((5-fluoro-1,4,5,6-tetrahydropyrimidin-2-yl)amino)-1H-indazole-6-carboxamido)acetamido)propanoic acid] | > 10
O=C(O)C[C@H](NC(=O)CNC(=O)c1cc(NC2=NCC(F)CN2)c2cn[nH]c2c1)c1cccc(C(F)(F)F)c1Cl (stereo partly drawn) [10-(b), (3S)-3-(2-chloro-3-(trifluoromethyl)phenyl)-3-(2-(4-((5-fluoro-1,4,5,6-tetrahydropyrimidin-2-yl)amino)-1H-indazole-6-carboxamido)acetamido)propanoic acid] | > 10
O=C(O)C[C@H](NC(=O)CNC(=O)c1cc(NC2=NCC(F)CN2)c2cn[nH]c2c1)c1cc(Br)cc(OC(F)(F)F)c1 (stereo partly drawn) [32-(b), (3S)-3-(3-bromo-5-(trifluoromethoxy)phenyl)-3-(2-(4-((5-fluoro-1,4,5,6-tetrahydropyrimidin-2-yl)amino)-1H-indazole-6-carboxamido)acetamido)propanoic acid] | > 10
O=C(O)C[C@H](NC(=O)CNC(=O)c1cc(NC2=NCC(F)CN2)c2cn[nH]c2c1)c1cccc(OC(F)(F)F)c1 (stereo partly drawn) [36-(b), (3S)-3-(2-(4-((5-fluoro-1,4,5,6-tetrahydropyrimidin-2-yl)amino)-1H-indazole-6-carboxamido)acetamido)-3-(3-(trifluoromethoxy)phenyl)propanoic acid] | > 10
O=C(O)C[C@H](NC(=O)CNC(=O)c1cc(NC2=NCC(F)CN2)c2cn[nH]c2c1)c1ccc(F)c(OC(F)F)c1 (stereo partly drawn) [27-(b), (3S)-3-(3-(difluoromethoxy)-4-fluorophenyl)-3-(2-(4-((5-fluoro-1,4,5,6-tetrahydropyrimidin-2-yl)amino)-1H-indazole-6-carboxamido)acetamido)propanoic acid] | > 10
O=C(O)C[C@H](NC(=O)CNC(=O)c1cc(NC2=NCC(F)CN2)c2cn[nH]c2c1)c1cc(Br)ccc1F (stereo partly drawn) [23-(b), (3S)-3-(5-bromo-2-fluorophenyl)-3-(2-(4-((5-fluoro-1,4,5,6-tetrahydropyrimidin-2-yl)amino)-1H-indazole-6-carboxamido)acetamido)propanoic acid] | > 10
O=C(O)C[C@H](NC(=O)CNC(=O)c1cc(NC2=NCC(F)CN2)c2cn[nH]c2c1)c1cc(OC(F)(F)F)ccc1F (stereo partly drawn) [33-(b), (3S)-3-(2-(4-((5-fluoro-1,4,5,6-tetrahydropyrimidin-2-yl)amino)-1H-indazole-6-carboxamido)acetamido)-3-(2-fluoro-5-(trifluoromethoxy)phenyl)propanoic acid] | > 10

Now from value to compound:

Papp A→B at 90 min, 10 µM [nm/s] | SMILES
1 to 5 | O=C(O)C[C@H](NC(=O)CNC(=O)c1cc(NC2=NCC(F)CN2)cc2[nH]ncc12)c1cccc(C(F)(F)F)c1 (stereo partly drawn) [56-(b), (3S)-3-(2-(6-((5-fluoro-1,4,5,6-tetrahydropyrimidin-2-yl)amino)-1H-indazole-4-carboxamido)acetamido)-3-(3-(trifluoromethyl)phenyl)propanoic acid]
> 10 | O=C(O)C[C@H](NC(=O)CNC(=O)c1cc(NC2=NCC(F)CN2)c2c(F)n[nH]c2c1)c1cc(Cl)cc(C(F)(F)F)c1 (stereo partly drawn) [48-(b), (3S)-3-(3-chloro-5-(trifluoromethyl)phenyl)-3-(2-(3-fluoro-4-((5-fluoro-1,4,5,6-tetrahydropyrimidin-2-yl)amino)-1H-indazole-6-carboxamido)acetamido)propanoic acid]
> 10 | O=C(O)C[C@H](NC(=O)CNC(=O)c1cc(NC2=NCC(F)CN2)c2cn[nH]c2c1)c1ccc(C(F)(F)F)cc1 (stereo partly drawn) [47-(b), (3S)-3-(2-(4-((5-fluoro-1,4,5,6-tetrahydropyrimidin-2-yl)amino)-1H-indazole-6-carboxamido)acetamido)-3-(4-(trifluoromethyl)phenyl)propanoic acid]
> 10 | O=C(O)C[C@H](NC(=O)CNC(=O)c1cc(NC2=NCC(F)CN2)c2cn[nH]c2c1)c1ccc(OC(F)F)cc1 (stereo partly drawn) [46-(b), (3S)-3-(4-(difluoromethoxy)phenyl)-3-(2-(4-((5-fluoro-1,4,5,6-tetrahydropyrimidin-2-yl)amino)-1H-indazole-6-carboxamido)acetamido)propanoic acid]
1 to 5 | O=C(O)C[C@H](NC(=O)CNC(=O)c1cc(NC2=NCC(F)CN2)cc2[nH]ncc12)c1cc(Br)cc(C(F)(F)F)c1 (stereo partly drawn) [53-(b), (3S)-3-(3-bromo-5-(trifluoromethyl)phenyl)-3-(2-(6-((5-fluoro-1,4,5,6-tetrahydropyrimidin-2-yl)amino)-1H-indazole-4-carboxamido)acetamido)propanoic acid]
> 10 | O=C(O)C[C@H](NC(=O)CNC(=O)c1cc(NC2=NCC(F)CN2)c2cn[nH]c2c1)c1cccc(OC(F)F)c1 (stereo partly drawn) [37-(b), (3S)-3-(3-(difluoromethoxy)phenyl)-3-(2-(4-((5-fluoro-1,4,5,6-tetrahydropyrimidin-2-yl)amino)-1H-indazole-6-carboxamido)acetamido)propanoic acid]
5 to 10 | O=C(O)C[C@H](NC(=O)CNC(=O)c1cc(NC2=NCC(F)CN2)c2cn[nH]c2c1)c1cccc(N2CCOCC2)c1 (stereo partly drawn) [45-(b), (3S)-3-(2-(4-((5-fluoro-1,4,5,6-tetrahydropyrimidin-2-yl)amino)-1H-indazole-6-carboxamido)acetamido)-3-(3-morpholinophenyl)propanoic acid]
> 10 | O=C(O)C[C@H](NC(=O)CNC(=O)c1cc(NC2=NCCCN2)c2cn[nH]c2c1)c1cc(Cl)cc(C(F)(F)F)c1 [51-(b), (S)-3-(3-chloro-5-(trifluoromethyl)phenyl)-3-(2-(4-((1,4,5,6-tetrahydropyrimidin-2-yl)amino)-1H-indazole-6-carboxamido)acetamido)propanoic acid]
